Measured values as given in PubChem BioAssay AID330 (DTP/NCI, 2004).
“And” between values parts separate entries of the source, which are not always exact repeats. Identical values can stand only once. Toxic doses and inconclusive results are not listed.

Tested on: P388 leukemia ip, CD2F1 mice, survival T/C
Experiment: NCI In Vivo Anticancer Drug Screen. Data for tumor model P388 Leukemia (intraperitoneal) in CD2F1 (CDF1) mice
Conditions: endpoint: median survival time, higher = longer survival
Summary of the method: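 Mice carrying the transplanted tumor received test compound or vehicle. Survival was recorded in each group, and the value is the treated-group measurement divided by that of the vehicle-treated control group.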

[1] = dose: 60.0 mg/kg/injection, schedule: Q01DX005 (ip), vehicle: Klucel (hydroxypropylcellulose) (HPC)
[2] = dose: 120.0 mg/kg/injection, schedule: Q01DX005 (ip), vehicle: Klucel (hydroxypropylcellulose) (HPC)
[3] = dose: 240.0 mg/kg/injection, schedule: Q01DX005 (ip), vehicle: Klucel (hydroxypropylcellulose) (HPC)
[4] = dose: 50.0 mg/kg/injection, schedule: Q01DX005 (ip), vehicle: Klucel (hydroxypropylcellulose) (HPC)
[5] = dose: 100.0 mg/kg/injection, schedule: Q01DX005 (ip), vehicle: Klucel (hydroxypropylcellulose) (HPC)
[6] = dose: 200.0 mg/kg/injection, schedule: Q01DX005 (ip), vehicle: Klucel (hydroxypropylcellulose) (HPC)
[7] = dose: 25.0 mg/kg/injection, schedule: Q01DX009 (ip), vehicle: saline with Tween-80
[8] = dose: 100.0 mg/kg/injection, schedule: Q01DX001 (ip), vehicle: saline
[9] = dose: 200.0 mg/kg/injection, schedule: Q01DX001 (ip), vehicle: saline
[10] = dose: 60.0 mg/kg/injection, schedule: Q01DX005 (ip), vehicle: saline with Tween-80
[11] = dose: 120.0 mg/kg/injection, schedule: Q01DX005 (ip), vehicle: saline with Tween-80
[12] = dose: 50.0 mg/kg/injection, schedule: Q01DX009 (ip), vehicle: saline
[13] = dose: 100.0 mg/kg/injection, schedule: Q01DX009 (ip), vehicle: saline
[14] = dose: 240.0 mg/kg/injection, schedule: Q01DX005 (ip), vehicle: saline with Tween-80

Clc1ccc(C[n+]2ccccc2)cc1Cl
T/C (dose: 5.0 mg/kg/injection, schedule: Q04DX003 (ip), vehicle: saline): 120 % of control | T/C (dose: 10.0 mg/kg/injection, schedule: Q04DX003 (ip), vehicle: saline): 110 % of control | T/C (dose: 20.0 mg/kg/injection, schedule: Q04DX003 (ip), vehicle: saline): 110 % of control

O=C(Nc1cccc(NC(=O)Nc2cc(C(F)(F)F)ccc2Cl)c1)Nc1cc(C(F)(F)F)ccc1Cl
T/C [1]: 89 % of control | T/C [2]: 91 % of control | T/C [3]: 100 % of control

O=C(O)c1ccccc1SSC(=S)N1CCOCC1
T/C (dose: 50.0 mg/kg/injection, schedule: Q01DX009 (ip), vehicle: Klucel (hydroxypropylcellulose) (HPC)): 93 % of control | T/C (dose: 100.0 mg/kg/injection, schedule: Q01DX009 (ip), vehicle: Klucel (hydroxypropylcellulose) (HPC)): 108 % of control | T/C (dose: 200.0 mg/kg/injection, schedule: Q01DX009 (ip), vehicle: Klucel (hydroxypropylcellulose) (HPC)): 118 % of control

NCC1CC2CCC1CC2 (configuration not stated)
T/C (dose: 12.5 mg/kg/injection, schedule: Q01DX005 (ip), vehicle: saline with Tween-80): 99 % of control | T/C (dose: 25.0 mg/kg/injection, schedule: Q01DX005 (ip), vehicle: saline with Tween-80): 100 % of control | T/C (dose: 50.0 mg/kg/injection, schedule: Q01DX005 (ip), vehicle: saline with Tween-80): 100 % of control and 102 % of control

CC1(CSc2ccccc2)CC(=O)N1 (configuration not stated)
T/C (dose: 50.0 mg/kg/injection, schedule: Q01DX009 (ip), vehicle: suspension in saline): 111 % of control | T/C (dose: 100.0 mg/kg/injection, schedule: Q01DX009 (ip), vehicle: suspension in saline): 98 % of control | T/C (dose: 200.0 mg/kg/injection, schedule: Q01DX009 (ip), vehicle: suspension in saline): 99 % of control

c1cnc2c3ccncc3c3nc(-c4ccncc4)[nH]c3c2c1
T/C [4]: 91 % of control | T/C [5]: 88 % of control | T/C [6]: 101 % of control

CCCOC(=O)/C=C(\Br)C(=O)OCCC
T/C (dose: 6.25 mg/kg/injection, schedule: Q01DX009 (ip), vehicle: saline with Tween-80): 113 % of control | T/C (dose: 12.5 mg/kg/injection, schedule: Q01DX009 (ip), vehicle: saline with Tween-80): 116 % of control and 117 % of control | T/C [7]: 103 % of control

Cc1cc(N2CCOCC2)ccc1N=Nc1nc2ccccc2s1
T/C [8]: 89 % of control | T/C [9]: 88 % of control

C(CCC[Si]12OCCN(CCO1)CCO2)CC[Si]12OCCN(CCO1)CCO2
T/C [4]: 102 % of control | T/C [5]: 93 % of control | T/C [6]: 91 % of control

CNc1nc2cc(OC)c(OC)cc2c(=O)[nH]1
T/C (dose: 15.0 mg/kg/injection, schedule: Q01DX005 (ip), vehicle: saline with Tween-80): 98 % of control | T/C (dose: 30.0 mg/kg/injection, schedule: Q01DX005 (ip), vehicle: saline with Tween-80): 94 % of control | T/C [10]: 91 % of control and 98 % of control | T/C [11]: 100 % of control

COC1(OC)C(c2ccc([N+](=O)[O-])cc2)C([N+](=O)[O-])C1(OC)OC (configuration not stated)
T/C [1]: 90 % of control | T/C [2]: 93 % of control | T/C [3]: 89 % of control

C[N+]1(Cc2ccccc2)C2CCC1C(CCl)C(O)C2 (configuration not stated)
T/C (dose: 3.12 mg/kg/injection, schedule: Q01DX009 (ip), vehicle: saline): 111 % of control | T/C (dose: 6.25 mg/kg/injection, schedule: Q01DX009 (ip), vehicle: saline): 115 % of control | T/C (dose: 12.5 mg/kg/injection, schedule: Q01DX009 (ip), vehicle: saline): 101 % of control and 104 % of control

COc1cccc2c1C(=O)c1c(O)c3c(c(O)c1C2=O)CC(O)(/C(C)=N/NC(=S)c1ccccc1)CC3OC1CC(N)C(O)C(C)O1 (configuration not stated)
T/C (dose: 3.13 mg/kg/injection, schedule: Q01DX009 (ip), vehicle: other): 88 % of control | T/C (dose: 6.25 mg/kg/injection, schedule: Q01DX009 (ip), vehicle: other): 96 % of control | T/C (dose: 6.25 mg/kg/injection, schedule: Q04DX003 (ip), vehicle: saline): 154 % of control | T/C (dose: 12.5 mg/kg/injection, schedule: Q01DX009 (ip), vehicle: other): 103 % of control | T/C (dose: 12.5 mg/kg/injection, schedule: Q04DX003 (ip), vehicle: saline): 159 % of control | T/C (dose: 25.0 mg/kg/injection, schedule: Q01DX009 (ip), vehicle: other): 88 % of control | T/C (dose: 25.0 mg/kg/injection, schedule: Q04DX003 (ip), vehicle: saline): 166 % of control

CCCCCCCC[N+]1([O-])CCOCC1
T/C [12]: 108 % of control | T/C [13]: 97 % of control | T/C (dose: 200.0 mg/kg/injection, schedule: Q01DX009 (ip), vehicle: saline): 88 % of control

Cc1ccc(NC(=O)COc2ccc(Cl)cc2Cl)c(C)c1
T/C (dose: 100.0 mg/kg/injection, schedule: Q04DX003 (ip), vehicle: saline with Tween-80): 104 % of control | T/C (dose: 200.0 mg/kg/injection, schedule: Q04DX003 (ip), vehicle: saline with Tween-80): 95 % of control | T/C (dose: 400.0 mg/kg/injection, schedule: Q04DX003 (ip), vehicle: saline with Tween-80): 90 % of control

O=C(CC1=NC2NN(c3ccccc3)C(=O)C2=C1CC(=O)C(c1ccccc1)c1ccccc1)C(c1ccccc1)c1ccccc1 (configuration not stated)
T/C (dose: 60.0 mg/kg/injection, schedule: Q01DX005 (ip), vehicle: suspension in saline): 98 % of control | T/C (dose: 120.0 mg/kg/injection, schedule: Q01DX005 (ip), vehicle: suspension in saline): 102 % of control | T/C (dose: 240.0 mg/kg/injection, schedule: Q01DX005 (ip), vehicle: suspension in saline): 100 % of control

O=c1c(N=Nc2ccccc2Cl)c(O)n(-c2ccc(Cl)cc2)c(=S)n1-c1ccc(Br)cc1
T/C (dose: 100.0 mg/kg/injection, schedule: Q04DX002 (ip), vehicle: saline with Tween-80): 99 % of control | T/C (dose: 200.0 mg/kg/injection, schedule: Q04DX002 (ip), vehicle: saline with Tween-80): 99 % of control | T/C (dose: 400.0 mg/kg/injection, schedule: Q04DX002 (ip), vehicle: saline with Tween-80): 112 % of control

CCOP(=O)(Nc1ccc(C)cc1)OCC
T/C [8]: 104 % of control | T/C [9]: 109 % of control | T/C (dose: 400.0 mg/kg/injection, schedule: Q01DX001 (ip), vehicle: saline): 105 % of control

O/N=C(\c1ccccc1)C1c2ccccc2-c2ccccc21
T/C [10]: 94 % of control | T/C [11]: 94 % of control | T/C [14]: 94 % of control

COc1ccc(N2C(=O)c3ccc4c5ccc6c7c(ccc(c8ccc(c3c48)C2=O)c75)C(=O)NC6=O)cc1
T/C (dose: 12.5 mg/kg/injection, schedule: Q01DX005 (ip), vehicle: Klucel (hydroxypropylcellulose) (HPC)): 89 % of control | T/C (dose: 25.0 mg/kg/injection, schedule: Q01DX005 (ip), vehicle: Klucel (hydroxypropylcellulose) (HPC)): 90 % of control | T/C [4]: 90 % of control | T/C [5]: 90 % of control | T/C [6]: 89 % of control

CC(=O)OCN1C(=O)N(COC(C)=O)C(c2ccccc2)(c2ccccc2)C1=O
T/C [1]: 104 % of control | T/C [2]: 105 % of control | T/C [3]: 103 % of control

C[C@]12CC[C@@H]3c4ccc(O)cc4CC[C@H]3[C@@H]1CC[C@@H]2NCCCCCCO
T/C [4]: 92 % of control | T/C [5]: 97 % of control

COc1nc2[nH]ccc2c(=O)n1C
T/C [10]: 101 % of control | T/C [11]: 92 % of control | T/C [14]: 89 % of control

Cn1cnc2cc3c(cc2c1=O)nc1n3CCOC1
T/C (dose: 100.0 mg/kg/injection, schedule: Q04DX003 (ip), vehicle: Klucel (hydroxypropylcellulose) (HPC)): 103 % of control | T/C (dose: 200.0 mg/kg/injection, schedule: Q04DX003 (ip), vehicle: Klucel (hydroxypropylcellulose) (HPC)): 100 % of control | T/C (dose: 400.0 mg/kg/injection, schedule: Q04DX003 (ip), vehicle: Klucel (hydroxypropylcellulose) (HPC)): 93 % of control

O=[N+]([O-])c1cc(CN(CCO)CCO)c(O)c2ncccc12
T/C [10]: 104 % of control | T/C [11]: 109 % of control

Cc1ccc(S(=O)(=O)N/N=C2/C(=O)N(c3ccc(Cl)cc3C)C(=O)C(=O)C2c2nc3ccccc3s2)cc1 (configuration not stated)
T/C [10]: 98 % of control | T/C [11]: 103 % of control | T/C [14]: 104 % of control

CCN(CC)Cc1c(C)[nH]c2ccc3c(c2c1=O)CCCC3
T/C [1]: 91 % of control | T/C [2]: 93 % of control

Clc1nc[nH]c1Cl
T/C [7]: 109 % of control | T/C (dose: 50.0 mg/kg/injection, schedule: Q01DX009 (ip), vehicle: saline with Tween-80): 100 % of control | T/C (dose: 100.0 mg/kg/injection, schedule: Q01DX009 (ip), vehicle: saline with Tween-80): 98 % of control

CCN(CC)c1ccc2nc3c4ccccc4c(=NC(=O)c4ccccc4-c4c5ccc(N(CC)CC)cc5[o+]c5cc(N(CC)CC)ccc45)cc-3oc2c1
T/C [12]: 106 % of control | T/C [13]: 96 % of control

O=C(Nc1cccnc1)c1ccc(CSc2ccc(Cl)cc2)o1
T/C [4]: 104 % of control | T/C [5]: 102 % of control | T/C [6]: 111 % of control
